Test results taken from patent US20130225641A1, “ANTICANCER COMPOUNDS AND PREPARATION METHODS THEREOF” (priority 2010, published 2013).

Tests used:
[1] = test system: Raf protein kinase; test: Inhibition of Raf protein kinase activity (phosphorylated MEK, western blotting) in MDA-MB-321 cells; assay type: cell-based, human; conditions: 1 hour treatment, phosphorylated MEK level, read-out: median inhibitory concentration (IC50) for inhibiting the activity of Raf protein kinase
Description: Raf is a proto-oncogenic product, and activation of Raf is regulated with stimulation from extracellular cell growth factors. Once activated, Raf can activate MEK through phosphorylation, and further transmits an activation signal to ERK, thereby promoting the growth of tumor cells. In this test, the level of phosphorylated MEK in cells is indicative of the activity of Raf protein kinase in cells. MDA-MB-321 is a human derived breast cancer cell line, which is rich in Raf protein. We used MDA-MB-321 cells to detect whether ZTP and ZTQ can inhibit the activity of Raf protein kinase. MDA-MB-321 cells were subjected to adherent growth in the RPMI 1640 medium (GIBCO-BRL) containing 10% bovine calf serum at 37° C. in 5% CO2. The cells were treated with various concentrations of ZTP and ZTQ (0, 10 ng/ml, 100 ng/ml, 500 ng/ml, 1 μg/ml, and 10 μg/ml), and the cell proteins were collected 1 hour after treatment. The protein content was determined through Bradford method, and then the level of phosphorylated MEK was assayed through western blotting. Immunoblotting experiment: denatured polyacrylamide gel was used for separation of the proteins with a sample load of 60 μg of total proteins. The proteins were electro-transferred onto a PVDF membrane and blocked. […] The membrane was exposed to an X-ray film, and the results were analyzed by a gel imaging system. […]

[2] = test system: LoVo; test: MTT cytotoxicity, LoVo; assay type: cell-based; conditions: Homo sapiens, Colonic, 72 hrs, read-out: LC50 (the source's name)
Procedure: (§1) The cytotoxicity of ZTP and ZTQ was analyzed by using human tumor cell lines. Human tumor cell lines were purchased from ATCC and NCI, and cultured in DMEM medium containing 10% FBS at 37° C. in 5% CO2 in an incubator. The cells grown to confluence were used for cytotoxicity analysis. The cells were digested with trypsin, washed with the culture medium, and then counted. 33 tumor cell lines were cultured. The cells were seeded at a density of 3000-6000 cells/well in a 96-well plate and incubated for 16-24 hrs. Then, various concentrations of ZTP or ZTQ dissolved in DMSO were added, and cultured for 72 hrs. The drug-treated cells and control cells were analyzed by MTT.

[3] = test system: NCI-H23; test: MTT cytotoxicity, NCI-H23; assay type: cell-based; conditions: Homo sapiens, NCI-H23, Lung, 72 hrs, read-out: LC50 (the source's name)
Procedure: as §1

[4] = test system: Caki-1; test: MTT cytotoxicity, Caki-1; assay type: cell-based; conditions: Homo sapiens, Caki-1, Renal, 72 hrs, read-out: LC50 (the source's name)
Procedure: as §1

[5] = test system: SN12C; test: MTT cytotoxicity, SN12C; assay type: cell-based; conditions: Homo sapiens, Renal, 72 hrs, read-out: LC50 (the source's name)
Procedure: as §1

[6] = test system: Mid PaCa-2; test: MTT cytotoxicity, Mid PaCa-2; assay type: cell-based; conditions: Homo sapiens, Mid PaCa-2, Pancreatic, 72 hrs, read-out: LC50 (the source's name)
Procedure: as §1

[7] = test system: U-251; test: MTT cytotoxicity, U-251; assay type: cell-based; conditions: Homo sapiens, U-251, Glioblastoma, 72 hrs, read-out: LC50 (the source's name)
Procedure: as §1

[8] = test system: SGC-7901; test: MTT cytotoxicity, SGC-7901; assay type: cell-based; conditions: Homo sapiens, SGC-7901, Gastric, 72 hrs, read-out: LC50 (the source's name)
Procedure: as §1

[9] = Pharmacokinetic study in mice; assay type: in vivo; conditions: both sexes, mouse, po, BALB/c mice, single dose of 100 mg/kg orally by gavage, plasma, Mean +/− SD; for half-life: read-out: T½ (converted)
Procedure: BALB/c mice (2 males and 2 females) of 8 weeks old were administered with the compounds ZTP and ZTQ (formulated with 15% Captsol or a carrier) at a single dose of 100 mg/kg. 0.5, 1, 3, 6, 12, 24, 48, and 72 hrs after administration, blood was taken from ophthalmic vein and plasma was prepared therefrom, to determine the plasma concentrations of ZTP and ZTQ. The pharmacokinetic parameters of the compounds ZTP and ZTQ given orally by gavage in the 4 mice are summarized as below (Tables 2 and 3): […]

[10] = Side effects in tumor transplanted nude mice; assay type: in vivo, nude mice (nu/nu); conditions: during treatment
Procedure: T-cell deficient nude mice (nu/nu) of 6 weeks old were purchased from Charles River Laboratory, and housed and treated in a sterile environment following Institutional Animal Care & Use Committee Program. 48 mice were respectively subcutaneously inoculated on ribbed belly with 5×10^6 human liver cancer cells (HepG3B), human lung caner cells (NCI-H23), and human colon cancer cells (HCT-116) suspended in 0.2 ml HBSS/matrigel (50:50, V/V). When the tumor grew to have an average diameter of 7-8 mm and a volume of about 100-200 mm^3, 24 mice were picked up, and assigned to treatment groups (16 animals/2 groups), and a control group (8 animals). The 2 treatment groups were administered with the compounds ZTP and ZTQ dissolved in 15% Captsol respectively at a dose of 30 mg/kg and 60 mg/kg, and the control group only received an excipient (15% Captsol).
The dose schedule of the test compounds in the tumor transplanted nude mice was as follows: the compounds ZTP and ZTQ dissolved in 15% Captsol were daily orally administered as a 200 μl solution containing 0.75 mg of ZTP and 1.5 mg of ZTQ for 5 days/week over 3 consecutive weeks, followed by one-week break; and the control group was only administered with 200 μl of the placebo (15% Captsol) for 3 weeks, followed by 1 week of break. The two groups of animals were housed separately, and allowed to free access to food.

Structure (SMILES) | IC50 [1] [nM] | CC50 [2] [nM] | CC50 [3] [nM] | CC50 [4] [nM] | CC50 [5] [nM] | CC50 [6] [nM] | CC50 [7] [nM] | CC50 [8] [nM] | Cmax [9] [µM] | Tmax [9] [h] | half-life [9] [h] | side effect, including the change in body weight [10]
CNC(=O)c1cc(Oc2ccc(NC(=S)Nc3ccc(Cl)c(C(F)(F)F)c3)cc2)ccn1 [ZTP, N-[4-chloro-3-(trifluoromethyl)phenyl]-[4-(N-methyl-formamide)(4-pyridyloxy)phenyl]-thiourea] | 45 | 1310 | 890 | 1120 | 3210 | 1250 | 3670 | 1310 | 51 | 6.4 | 4.1 | –
CNC(=O)c1cc(Sc2ccc(NC(=S)Nc3ccc(Cl)c(C(F)(F)F)c3)cc2)ccn1 [ZTQ, N-[4-chloro-3-(trifluoromethyl)phenyl]-[4-(N-methyl-formamide)(4-pyridylthio)phenyl]-thiourea] | 20 | 1100 | 710 | 910 | 2200 | 910 | 2500 | 1030 | 52 | 6.6 | 4.2 | no obvious side effect
